The results in this text go back to US12365687B2 (Hoffmann-La Roche Inc., priority 2021, dated 2025).

One may read the Ki as a dissociation constant, usually derived from enzyme kinetics or from competition with a known ligand. A higher Ki goes with lower affinity.

For assay [1], the target named is human GABAA α1β3γ2 receptor (Homo sapiens (Human), UniProt P14867+P18507). Kind of assay: Radioligand binding assay for γ2-containing GABAA subtypes, [3H]Flumazenil competition (α1β3γ2). The conditions noted are these: for γ2/γ1 Selectivity Ratio: Ki α1β3γ2 (nM)/Ki α2β2γ1 (nM); for LogSel: Log[Ki α1β3γ2 (nM)/Ki α2β2γ1 (nM)].
The target of assay [2] is human GABAA α5β2γ1 receptor (Homo sapiens (Human), UniProt P31644+Q8N1C3). Kind of assay: Radioligand binding assay for γ1-containing GABAA subtypes, [3H]RO7239181 competition (α5β2γ1).
Assay [3] addresses human GABAA α2β2γ1 receptor (Homo sapiens (Human), UniProt P47869+Q8N1C3). As to the kind of experiment: Radioligand binding assay for γ1-containing GABAA subtypes, [3H]RO7239181 competition (α2β2γ1).
The target of assay [4] is human GABAA α1β2γ1 receptor (Homo sapiens (Human), UniProt P14867+Q8N1C3). As to the kind of experiment: Radioligand binding assay for γ1-containing GABAA subtypes, [3H]RO7239181 competition (α1β2γ1). As to the method:
The affinity of compounds at GABAA γ1 subunit-containing receptors was measured by competition for [^3H]RO7239181 (67.3 Ci/mmol; Roche) binding to membranes from HEK293F cells (ThermoFisher R79007) expressing human (transiently transfected) receptors of composition α5β2γ1, α2β2γ1, α1β2γ1.
Harvested pellets from HEK293F cells expressing the different GABAA receptor subtypes were resuspended in Mannitol Buffer pH 7.2-7.4 (Mannitol 0.29 M, Triethylamine 10 mM, Acetic acid 10 mM, EDTA 1 mM plus protease inhibitors (20 tablets Complete, Roche Diagnostics Cat. No. 05 056 489 001 per liter)), washed two times and then resuspended at 1:10 to 1:15 dilution in the same buffer. Cell disruption was performed by stirring the suspension in a Parr vessel #4637 at 435 psi for 15 minutes, and then the suspensions were centrifuged at 1000×g for 15 minutes at 4° C. (Beckman Avanti J-HC; rotor JS-4.2). The supernatant (S1) was transferred in a 2 l Schott flask and the pellet (P1) was resuspended with Mannitol Buffer up to 175 ml. The resuspended pellet was transferred into a 250 ml Corning centrifugal beaker and centrifuged at 1500×g for 10 minutes at 4° C. (Beckman Avanti J-HC; rotor JS-4.2). The supernatant (S1) was then transferred in the 2 l Schott flask and the pellet was discarded. The supernatants (S1) were centrifuged in 500 ml Beckman polypropylene centrifugal beaker at 15′000×g for 30 minutes at 4° C. (Beckman Avanti J-20 XP; rotor JLA-10.500). The pellet (P2) was resuspended with Mannitol Buffer 1:1 and frozen at −80° C. The supernatant (S2) was centrifuged in 100 ml Beckman polypropylene centrifugal tubes at 48000×g for 50 minutes at 4° C. (Beckman Avanti J-20 XP; rotor JA-18). The supernatant (S3) was discarded and the pellet (P3) was resuspended with 1:1 Mannitol Buffer. The P2 and P3 protein concentration was determined with the BIORAD Standard assay method with bovine serum albumin as standard and measured on the NANO-Drop 1000. The membrane suspension was aliquots (500 μl per tube) and stored at −80° C. until required.
Membrane homogenates were resuspended and polytronised (Polytron PT1200E Kinematica AG) in Potassium Phosphate 10 mM, KCl 100 mM binding buffer at pH 7.4 to a final assay concentration determined with a previous experiment.
Assays were incubated to equilibrium for 1 hour at 4° C. and then, membranes were filtered onto unifilter (96-well white microplate with bonded GF/C filters preincubated 20-50 minutes in 0.3% Polyethylenimine) with a Filtermate 196 harvester (Packard BioScience) and washed 4 times with cold Potassium Phosphate 10 mM pH 7.4, KCl 100 mM binding buffer. After anhydrousing, filter-retained radioactivity was detected by liquid scintillation counting. Ki values were calculated using Excel-Fit (Microsoft) and are the means of two determinations.

Assay [5] has as its target α2β2γ1 GABAA receptor subtype (Homo sapiens (Human), UniProt P47869+Q8N1C3). As to the kind of experiment: Two-electrode voltage clamp electrophysiology in Xenopus oocytes expressing GABAA receptors (modulation of GABA EC20 current). The format is cell-based. The conditions noted are these: for Efficacy (GABA)%: % modulation of GABA EC20 = 100*(Fold increase-1), α2β2γ1 oocytes, compound at approx. 30-fold Ki; for Fold increase h-GABA-A α2β2γ1 oocyte @ 30-fold Ki: Xenopus oocytes expressing α2β2γ1, compound at approx. 30-fold its Ki α2β2γ1, GABA EC20 current. The method in brief:
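Each concentration was tested on ≥3 oocytes held at −80 mV at room temperature, recorded 3-5 days post-injection. A control and a test response to EC20 GABA (1.5 min each) were superimposed and their point-by-point ratio taken. Peak ratio reported as % modulation of GABA EC20 = 100×(fold increase−1).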

The mark [6] stands for this setting: Ki h-GABAA α2β2γ1, [3H]RO7239181 competition binding, human GABAA α2β2γ1.
Where [7] appears, read: Ki h-GABAA α2β2γ1, displacement of [3H]RO7239181, membranes of HEK293F cells expressing human receptors, means of two determinations.

Consider `CCOC1CN(C(=O)c2nc3n(n2)-c2ccc(C(F)(F)F)c(Cl)c2C(c2ncccc2F)=N[C@H]3C)C1` [Example 137, [(4S)-7-chloro-6-(3-fluoro-2-pyridyl)-4-methyl-8-(trifluoromethyl)-4H-[1,2,4]triazolo[1,5-a][1,4]benzodiazepin-2-yl]-(3-ethoxyazetidin-1-yl)methanone], for which the Ki turned out to be 10500 nM in assay [1]; 6.58 nM in assay [2]; 42.6 nM in assay [3] (setting [6]); 42.6 nM in assay [3] (setting [7]); 130 nM in assay [4]. The “γ2/γ1 Selectivity Ratio” value in assay [1] worked out at 246.0. Moreover, in assay [1], the LogSel is 2.39. Moreover, the “Efficacy (GABA)%” value in assay [5] amounted to 129%. In addition, the “Fold increase h-GABA-A α2β2γ1 oocyte @ 30-fold Ki” value in assay [5] was 2.29.

As to `Cc1nnc(-c2nc3n(n2)-c2ccc(C(F)(F)F)c(Cl)c2C(c2ncccc2F)=N[C@H]3C)o1` [Example 144, 2-[(4S)-7-chloro-6-(3-fluoro-2-pyridyl)-4-methyl-8-(trifluoromethyl)-4H-[1,2,4]triazolo[1,5-a][1,4]benzodiazepin-2-yl]-5-methyl-1,3,4-oxadiazole], the Ki is 13500 nM in assay [1]; 8.3 nM in assay [2]; 73.5 nM in assay [3] (setting [6]); 73.5 nM in assay [3] (setting [7]); 179 nM in assay [4]. Moreover, the “γ2/γ1 Selectivity Ratio” value in assay [1] stood at 183.6. This compound also returned a LogSel in assay [1] of 2.26. Moreover, the “Efficacy (GABA)%” value in assay [5] is 169%. The “Fold increase h-GABA-A α2β2γ1 oocyte @ 30-fold Ki” value in assay [5] came to 2.69.

Regarding `C[C@@H]1N=C(c2ncccc2F)c2c(ccc(C(F)(F)F)c2Cl)-n2cc(C(=O)NCC(C)(C)O)nc21` [Example 159, (4S)-7-chloro-6-(3-fluoro-2-pyridyl)-N-(2-hydroxy-2-methyl-propyl)-4-methyl-8-(trifluoromethyl)-4H-imidazo[1,2-a][1,4]benzodiazepine-2-carboxamide], the Ki in assay [1] came out at 8320 nM; in assay [2] it was 11.4 nM; in assay [3] (setting [6]) it was 43 nM; in assay [3] (setting [7]) it was 42.6 nM; in assay [4], 70.4 nM. The “γ2/γ1 Selectivity Ratio” value in assay [1] is 195.6. The compound further came in with a LogSel in assay [1] of 2.29. Further, the “Efficacy (GABA)%” value in assay [5] is 217%. For the same compound, in assay [5], the “Fold increase h-GABA-A α2β2γ1 oocyte @ 30-fold Ki” value stood at 3.17.
